Where two headings read alike, the source gives them in different places.
Legend:
STAT6 = molecular target: T1, STAT6 (Homo sapiens, UniProt P42226); experiment: STAT6 Reporter Luciferase Assay (IL-13 stimulated HaCaT keratinocyte NanoLuc reporter cells); assay type: cell-based; conditions: read-out: Reporter EC50
T1 construct: stably transfected HaCaT keratinocyte cell line, which expresses NanoLuc luciferase reporter gene under the transcriptional control of the STAT6 responsive promoter; endogenous in cells; host or cells: HaCaT keratinocyte reporter cell line (stably transfected with a NanoLuc reporter)
T1 sequence (P42226 1-847): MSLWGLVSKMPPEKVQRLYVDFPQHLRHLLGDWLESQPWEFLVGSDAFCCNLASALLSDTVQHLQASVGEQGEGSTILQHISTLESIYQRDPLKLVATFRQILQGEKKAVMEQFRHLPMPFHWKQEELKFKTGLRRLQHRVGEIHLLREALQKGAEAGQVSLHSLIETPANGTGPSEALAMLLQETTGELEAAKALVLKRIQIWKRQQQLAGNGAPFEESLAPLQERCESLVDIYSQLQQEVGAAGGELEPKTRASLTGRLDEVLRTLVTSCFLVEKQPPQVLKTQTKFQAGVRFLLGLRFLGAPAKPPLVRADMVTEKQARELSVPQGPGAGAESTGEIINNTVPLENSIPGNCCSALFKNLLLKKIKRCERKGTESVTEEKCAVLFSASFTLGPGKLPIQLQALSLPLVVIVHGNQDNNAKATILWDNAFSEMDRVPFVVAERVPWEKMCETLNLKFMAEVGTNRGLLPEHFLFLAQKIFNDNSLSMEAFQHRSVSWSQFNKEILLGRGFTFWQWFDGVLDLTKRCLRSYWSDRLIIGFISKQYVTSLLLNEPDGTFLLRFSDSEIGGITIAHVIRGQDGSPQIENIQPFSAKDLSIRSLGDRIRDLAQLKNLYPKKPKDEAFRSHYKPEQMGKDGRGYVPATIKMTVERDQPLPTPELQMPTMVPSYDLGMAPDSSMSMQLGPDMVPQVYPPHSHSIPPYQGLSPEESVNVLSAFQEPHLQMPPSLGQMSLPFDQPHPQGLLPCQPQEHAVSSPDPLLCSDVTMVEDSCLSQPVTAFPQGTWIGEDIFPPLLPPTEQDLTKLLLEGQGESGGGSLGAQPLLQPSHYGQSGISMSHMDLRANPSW
How it was run: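 HaCaT cells stably carrying a NanoLuc reporter driven by the STAT6-responsive IL-13Ra2 promoter were preincubated with compounds for 2 h at 37 °C in 2% FBS medium. Cells were then stimulated with 0.12 nM IL-13 for 4 h, and luminescence was read after Nano-Glo substrate. Compounds ran as 11-point 4-fold dilutions in duplicate.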

[1] = test system: CCL17 secretion in peripheral human whole blood; experiment: Human Whole Blood (HWB) CCL17 TR-FRET Assay (IL-13 stimulated CCL17 secretion); assay type: cell-based
How it was run: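 IC50 comes from serum CCL17 measured by a TR-FRET sandwich assay (16 h at room temperature, 665/615 nm ratio). Beforehand, blood in sodium heparin was exposed to an 11-point, 3-fold compound series for 2 h at 37°C and then to 10 ng/mL IL-13 for 48 h.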

[2] = IL-13 stimulated HaCaT STAT6 NanoLuc reporter cells
[3] = Homo sapiens, 48 h, human whole blood, 10 ng/mL IL13, 48 hours
[4] = STAT6 NanoLuc luciferase reporter, IL-13 stimulated HaCaT keratinocyte cells
[5] = Homo sapiens, 48 h, inhibition of CCL17 secretion in human whole blood, 10 ng/mL IL13, 48 hours
[6] = Homo sapiens, 48 h, human whole blood, IL-13 stimulated
[7] = Homo sapiens, 48 h, human whole blood, IL-13 10 ng/mL
[8] = human whole blood, IL-13 stimulated, 48 hours

SMILES: CC(C)n1nc(C(=O)NCc2ccc(NC(=O)N(C)C)cc2)c2c1[C@@H](C)CN(c1ccc(C(=O)N(C)CC3CCN(C)CC3)cc1)C2 [Example 635, (S)-N-(4-(3,3-dimethylureido)benzyl)-1-isopropyl-7-methyl-5-(4-(methyl((1-methylpiperidin-4-yl)methyl)carbamoyl)phenyl)-4,5,6,7-tetrahydro-1H-pyrazolo[4,3-c]pyridine-3-carboxamide]
- EC50 (STAT6; [2]): 14 nM
- IC50 [1, 3]: 71 nM

SMILES: CNC1(C)CN(C(=O)Nc2ccc(CNC(=O)c3nn(C(C)C)c4c3CN(c3ccc(C(=O)N(C)C)cc3)C[C@@H]4C)cc2)C1 [Example 581, (S)-5-(4-(dimethylcarbamoyl)phenyl)-1-isopropyl-7-methyl-N-(4-(3-methyl-3-(methylamino)azetidine-1-carboxamido)benzyl)-4,5,6,7-tetrahydro-1H-pyrazolo[4,3-c]pyridine-3-carboxamide]
- EC50 (STAT6; [2]): 3 nM
- IC50 [1, 3]: 24 nM

SMILES: CN(C)C(=O)Nc1ccc(CNC(=O)c2nn(C3CCOCC3)c3c2CN(c2ccc(C(=O)N(C)C)cn2)CC3)cc1 [Example 76, 5-(5-(dimethylcarbamoyl)pyridin-2-yl)-N-(4-(3,3-dimethylureido)benzyl)-1-(tetrahydro-2H-pyran-4-yl)-4,5,6,7-tetrahydro-1H-pyrazolo[4,3-c]pyridine-3-carboxamide]
- EC50 (STAT6; [4]): 57 nM
- IC50 [1, 5]: 156 nM

SMILES: CC(C)n1nc(C(=O)NCc2ccc(NC(=O)N3CCNCC3)cc2)c2c1[C@@H](C)CN(c1ccc(C(=O)N(C)C)cc1)C2 [Example 525, (S)-5-(4-(dimethylcarbamoyl)phenyl)-1-isopropyl-7-methyl-N-(4-(piperazine-1-carboxamido)benzyl)-4,5,6,7-tetrahydro-1H-pyrazolo[4,3-c]pyridine-3-carboxamide]
- EC50 (STAT6; [2]): 2 nM
- IC50 [1, 6]: 7 nM

SMILES: CC(C)n1nc(C(=O)NCc2ccc(NC(=O)N3CC(N)C3)cc2)c2c1[C@@H](C)CN(c1ccc(C(=O)N(C)C)cc1)C2 [Example 627, (S)-N-(4-(3-aminoazetidine-1-carboxamido)benzyl)-5-(4-(dimethylcarbamoyl)phenyl)-1-isopropyl-7-methyl-4,5,6,7-tetrahydro-1H-pyrazolo[4,3-c]pyridine-3-carboxamide]
- EC50 (STAT6; [2]): 7 nM
- IC50 [1, 3]: 23 nM

SMILES: CCC1CN(c2ccc(C(=O)N(C)C)cn2)Cc2c(C(=O)NCc3ccc(NC(=O)N(C)C)cc3)nn(C(C)C)c21 (racemic) [Example 246, rac-(R)-5-(5-(dimethylcarbamoyl)pyridin-2-yl)-N-(4-(3,3-dimethylureido)benzyl)-7-ethyl-1-isopropyl-4,5,6,7-tetrahydro-1H-pyrazolo[4,3-c]pyridine-3-carboxamide]
- EC50 (STAT6; [2]): 1 nM
- IC50 [1, 6]: 10 nM

SMILES: CC(C)n1nc(C(=O)NCc2ccc(C(=O)NC3CCN(C)CC3)cc2)c2c1[C@@H](C)CN(c1ccc(C(=O)N(C)C)cn1)C2 [Example 601, (S)-5-(5-(dimethylcarbamoyl)pyridin-2-yl)-1-isopropyl-7-methyl-N-(4-((1-methylpiperidin-4-yl)carbamoyl)benzyl)-4,5,6,7-tetrahydro-1H-pyrazolo[4,3-c]pyridine-3-carboxamide]
- EC50 (STAT6; [2]): 312 nM
- IC50 [1, 3]: 2100 nM

SMILES: CCC1Cc2c(c(C(=O)NCc3ccc(NC(=O)N(C)C)cc3)nn2CC)CN1c1ccc(C(=O)N(C)C)cn1 (racemic) [Example 116, rac-(R)-5-(5-(dimethylcarbamoyl)pyridin-2-yl)-N-(4-(3,3-dimethylureido)benzyl)-1,6-diethyl-4,5,6,7-tetrahydro-1H-pyrazolo[4,3-c]pyridine-3-carboxamide]
- EC50 (STAT6; [4]): 10 nM
- IC50 [1, 5]: 61 nM

SMILES: CNC(=O)c1ccc(CNC(=O)c2nn(C(C)C)c3c2CN(c2ccc(C(=O)N4Cc5cccnc5C4)cn2)C[C@@H]3C)cc1 [Example 396, (S)-5-(5-(6,7-dihydro-5H-pyrrolo[3,4-b]pyridine-6-carbonyl)pyridin-2-yl)-1-isopropyl-7-methyl-N-(4-(methylcarbamoyl)benzyl)-4,5,6,7-tetrahydro-1H-pyrazolo[4,3-c]pyridine-3-carboxamide]
- EC50 (STAT6; [2]): 1 nM
- IC50 [1, 6]: 15 nM

SMILES: C[C@H]1CN(c2ncc(C(=O)N(C)C)cn2)Cc2c(C(=O)NCc3ccc(NC(=O)N(C)C)cc3)nn(CC3CC3)c21 [Example 120, (S)-1-(cyclopropylmethyl)-5-(5-(dimethylcarbamoyl)pyrimidin-2-yl)-N-(4-(3,3-dimethylureido)benzyl)-7-methyl-4,5,6,7-tetrahydro-1H-pyrazolo[4,3-c]pyridine-3-carboxamide]
- EC50 (STAT6; [4]): 1 nM
- IC50 [1, 5]: 4 nM

SMILES: CCn1nc(C(=O)NCc2ccc(C(=O)NC)cc2)c2c1[C@@H](C)CN(c1ncc(N3CCCC3=O)cn1)C2 [Example 484, (S)-1-ethyl-7-methyl-N-(4-(methylcarbamoyl)benzyl)-5-(5-(2-oxopyrrolidin-1-yl)pyrimidin-2-yl)-4,5,6,7-tetrahydro-1H-pyrazolo[4,3-c]pyridine-3-carboxamide]
- EC50 (STAT6; [2]): 26 nM
- IC50 [1, 6]: 108 nM

SMILES: CCn1nc(C(=O)NCc2ccc(NC(=O)N(C)C)cc2)c2c1[C@H](C)CN(c1ccc(C(=O)N(C)C)cn1)C2 (single isomer, unassigned) [Example 63]
- EC50 (STAT6; [4]): 14 nM
- IC50 [1, 5]: 105 nM

SMILES: CC(C)n1nc(C(=O)NCc2ccc(NC(=O)N(C)CC3COC3)cc2)c2c1CCN(c1ccc(C(=O)N(C)C)cn1)C2 [Example 168, 5-(5-(dimethylcarbamoyl)pyridin-2-yl)-1-isopropyl-N-(4-(3-methyl-3-(oxetan-3-ylmethyl)ureido)benzyl)-4,5,6,7-tetrahydro-1H-pyrazolo[4,3-c]pyridine-3-carboxamide]
- EC50 (STAT6; [4]): 24 nM
- IC50 [1, 5]: 111 nM

SMILES: C[C@@H]1c2c(C(=O)NCc3ccc(NC(=O)N(C)C)cc3)nn(C)c2CCN1c1ccc(C(=O)N(C)C)cn1 (single isomer, unassigned) [Example 445]
- EC50 (STAT6; [2]): 2 nM
- IC50 [1, 6]: 21 nM

SMILES: CC(C)n1nc(C(=O)NCc2ccc(NC(=O)N(C)C)cc2)c2c1C(O)CN(c1ccc(C(=O)N(C)C)cn1)C2 (centres unmarked) [Example 473, 5-(5-(dimethylcarbamoyl)pyridin-2-yl)-N-(4-(3,3-dimethylureido)benzyl)-7-hydroxy-1-isopropyl-4,5,6,7-tetrahydro-1H-pyrazolo[4,3-c]pyridine-3-carboxamide]
- EC50 (STAT6; [2]): 0.3 nM
- IC50 [1, 6]: 5 nM

SMILES: COc1nc(-c2ccc(CNC(=O)c3nn(C(C)C)c4c3CN(c3ccc(C(=O)N(C)C)cc3)C[C@@H]4C)cc2)ncc1N [Example 731, (S)-N-(4-(5-amino-4-methoxypyrimidin-2-yl)benzyl)-5-(4-(dimethylcarbamoyl)phenyl)-1-isopropyl-7-methyl-4,5,6,7-tetrahydro-1H-pyrazolo[4,3-c]pyridine-3-carboxamide]
- EC50 (STAT6; [2]): 82 nM
- IC50 [1, 7]: 1250 nM

SMILES: CCc1nc(C(=O)NCc2ccc(NC(=O)N(C)C)cc2)c2n1C(C)CN(c1ccc(C(=O)N(C)C)cn1)C2 (single isomer, unassigned) [Example 233, rel-(R or S)-7-(5-(dimethylcarbamoyl)pyridin-2-yl)-N-(4-(3,3-dimethylureido)benzyl)-3-ethyl-5-methyl-5,6,7,8-tetrahydroimidazo[1,5-a]pyrazine-1-carboxamide]
- EC50 (STAT6; [2]): 42 nM
- IC50 [1, 8]: 78 nM

SMILES: CCn1nc(C(=O)NCc2ccc(NC(=O)N(C)C)cc2)c2c1C(C(F)(F)F)CN(c1ccc(C(=O)N(C)C)cn1)C2 (single isomer, unassigned) [Example 304, rel-(R or S)-5-(5-(dimethylcarbamoyl)pyridin-2-yl)-N-(4-(3,3-dimethylureido)benzyl)-1-ethyl-7-(trifluoromethyl)-4,5,6,7-tetrahydro-1H-pyrazolo[4,3-c]pyridine-3-carboxamide]
- EC50 (STAT6; [2]): 0.3 nM
- IC50 [1, 8]: 4 nM

SMILES: Cc1cccc(-c2ccc(CNC(=O)c3nn(C(C)C)c4c3CN(c3ccc(C(=O)N(C)C)cc3)C[C@@H]4C)cc2)n1 [Example 726, (S)-5-(4-(dimethylcarbamoyl)phenyl)-1-isopropyl-7-methyl-N-(4-(6-methylpyridin-2-yl)benzyl)-4,5,6,7-tetrahydro-1H-pyrazolo[4,3-c]pyridine-3-carboxamide]
- EC50 (STAT6; [2]): 123 nM
- IC50 [1, 7]: 5680 nM

Reference: patent US20250320213A1, “Nitrogen-Containing Heterocyclic Compounds” (Pfizer Inc., priority 2024, published 2025)
